Laboratory results reported in paper PMC5562778 (Archives of Toxicology, 2017).
Blank lines part the entries; values can stand above or below the molecule they belong to.

Key:
Chinese liver S9 = assay: Sulfation of 1′-hydroxyestragole by Chinese liver S9 (PAPS, GSH trapping); type: in vitro ADME, human
Method: (§1) The formation of 1′-sulfooxyestragole was determined by incubating 0.2 mg/mL pooled mixed gender Chinese or Caucasian liver S9 in the presence of 0.2 mM PAPS as cofactor and 10 mM GSH as trapping agent for the reactive 1′-sulfooxyestragole in 0.1 M potassium phosphate (pH 8.0). The incubations were carried out for 2 h, and the reactions were terminated by adding 25 μL ice-cold acetonitrile. The blank samples were performed without cofactor. All incubations were performed in triplicate. In the supporting materials 2, detailed information can be found (Table S1 can be used to keep track of detailed information).
(§2) Before UPLC analysis, all samples were centrifuged for 5 min at 16, 000 g to precipitate microsomal or cytosolic proteins. Supernatant of each sample was analyzed on UPLC using a BEH C18 (1.7 μm, 2.1 × 50 mm) column with a guard column and a diode array detector (Acquity, Waters). Secondary metabolism of 1′-hydroxyestragole includes glucuronidation, oxidation, and sulfation. The gradient of analysis of the metabolites of 1′-hydroxyestragole can be found in supporting materials 2. Table S1 can be used to track more detailed information.
(§3) Since the UV spectrum of 3′-hydroxyanethole is similar to that of the GSH adduct of 1′-sulfooxyestragole, quantification of 1′-sulfooxyestragole could be achieved by comparing the peak area of the GSH adduct of 1′-sulfooxyestragole to the calibration curve of 3′-hydroxyanethole at a wavelength 260 nm as described for the quantification of 1′-sulfooxysafrole and 1′-sulfooxyelemicin (Martati et al. [2012]; Van den Berg et al. [2012]). The amount of 1′-sulfooxyestragole GSH adduct formed was corrected for the amount detected in the blank samples performed without the respective cofactor PAPS.
(§4) The apparent maximum velocity (V max) and the apparent Michaelis–Menten constant (K m) were determined by fitting the data to this equation using GraphPad Prism version 5.0 (GraphPad software, San Diego California USA).
(§5) The formation of 1'-sulfooxyestragole was determined by incubating 0.2 mg/ml pooled mixed gender Chinese or Caucasian liver S9 in the presence of 0.2 mM PAPS as cofactor and 10 mM GSH as trapping agent for the reactive 1'-sulfooxyestragole in 0.1 M potassium phosphate (pH 8.0). The final volume of the incubations was 100 μl with the substrate 1'-hydroxyestragole ranging from 15 to 2000 μM added from 100 times concentrated stock solutions in DMSO. As previously described by Martati et al. (Martati et al. 2011) and Al-Subeihi et al. (Al-Subeihi et al. 2011), the reactions were started by adding substrate after a pre-incubation at 37 °C for 1 min. The incubations were carried out for 2 hours and the reactions were terminated by adding 25 μl ice-cold acetonitrile. […] The blank samples were performed without cofactor. All incubations were performed in triplicate.
(§6) For detection of the GSH conjugate of 1'-sulfooxyestragole, the flow rate was 0.6 ml/min and the mobile phase was made with acetonitrile and ultrapure water with 0.1 % (v/v) TFA. A linear gradient started from 20 to 30 % acetonitrile in 4.5 min, after which the percentage of acetonitrile was increased to 100 % in 0.3 min and kept at 100 % for another 0.2 min and finally set back to the starting condition.

Chinese liver microsomes = assay: Microsomal conversion of estragole by Chinese liver microsomes (NADPH)
Method: (§7) The incubation mixtures contained (final concentrations) 3 mM NADPH and 1 mg/mL microsomal protein in 0.2 M Tris–HCl (pH 7.4). Incubations were performed for 10 min at substrate concentrations ranging from 25 to 1000 μM, after which the reaction was terminated by adding 25 μL ice-cold acetonitrile. Blank incubations were performed in the absence of the cofactor NADPH. All incubations were performed in triplicate. In the supporting materials 2, detailed information can be found (Table S1 can be used to keep track of detailed information).
(§8) Before UPLC analysis, all samples were centrifuged for 5 min at 16,000 g to precipitate microsomal proteins. Supernatant of each sample was analyzed on UPLC using a BEH C18 (1.7 μm, 2.1 × 50 mm) column with a guard column and a diode array detector (Acquity, Waters). […] Table S1 can be used to keep track of detailed information.
as §4
(§9) The incubation mixtures contained (final concentrations) 3 mM NADPH and 1 mg/ml microsomal protein in 0.2 M Tris-HCl (pH 7.4). […] Incubations were performed for 10 min at substrate concentrations ranging from 25 to 1000 μM, after which the reaction was terminated by adding 25 μl ice-cold acetonitrile. […] Blank incubations were performed in the absence of the cofactor NADPH. All incubations were performed in triplicate.
The flow rate was 0.6 ml/min and the gradient started with 100 % ultrapure water.

[1] = tested on: Caucasian liver microsomes; assay: Microsomal conversion of estragole by Caucasian liver microsomes (NADPH); type: in vitro ADME, human
Method: as §7
as §8, with “information. […] 3′-Hydroxyanethole was quantified by comparison of the peak areas of the metabolite in the chromatograms obtained at a wavelength of 206 nm to the calibration curve of the synthesized reference compound (Agharahimi and LeBel [1995]; Drinkwater et al. [1976]; Iyer et al. [2003]; Luo et al. [1992]).” for “information.”
as §4, §9
The flow rate was 0.6 ml/min and the gradient started with 100 % ultrapure water. After 1 min, the amount of acetonitrile was increased to 10 % and kept at that level for 1 min, after which the percentage of acetonitrile was increased to 35 % in 2.5 min and then increased to 100 % over 0.5 minute and kept at 100 % acetonitrile for another 1 min, and finally back to the starting conditions.

Caucasian liver S9 = assay: Sulfation of 1′-hydroxyestragole by Caucasian liver S9 (PAPS, GSH trapping); type: in vitro ADME, human
Method: as §1, §2, §3, §4, §5, §6

SULT = SULT mediated conversion of 7-hydroxycoumarin to 7-hydroxycoumarin sulfate, liver S9; type: in vitro ADME, human
Method: (§10) The quality of the Chinese and Caucasian liver microsomes was checked by measuring the activity of CYP1A2 and CYP2A6 by the method of Yang et al. ([2012]). The quality of Chinese and Caucasian liver S9 samples was checked by measuring the SULT activity based on the method provided by Wang et al. ([2006]). The details of the methods for the microsomal and S9 in vitro incubations and UPLC analysis for assessing the metabolic capabilities of CYP and SULT enzymes can be found in the supporting materials 1.
(§11) Before UPLC analysis, all samples were centrifuged for 5 min at 16, 000g to precipitate microsomal or cytosolic proteins. Supernatant of each sample was analyzed on UPLC using a BEH C18 (1.7 μm 2.1×50 mm) column with a guard column and a diode array detector (Acquity, Waters).

CYP 2A6 [2] = biological target: T1, CYP 2A6 (Homo sapiens, UniProt P11509); set-up: method as in Yang et al. 2012; conditions: ref Yang et al. 2012, cited from earlier work
T1 construct: tissue PrimeTox (Chinese pool); BD Gentest (Caucasian pool); host or cells: pooled mixed-gender human liver microsomes
T1 sequence (P11509 1-494): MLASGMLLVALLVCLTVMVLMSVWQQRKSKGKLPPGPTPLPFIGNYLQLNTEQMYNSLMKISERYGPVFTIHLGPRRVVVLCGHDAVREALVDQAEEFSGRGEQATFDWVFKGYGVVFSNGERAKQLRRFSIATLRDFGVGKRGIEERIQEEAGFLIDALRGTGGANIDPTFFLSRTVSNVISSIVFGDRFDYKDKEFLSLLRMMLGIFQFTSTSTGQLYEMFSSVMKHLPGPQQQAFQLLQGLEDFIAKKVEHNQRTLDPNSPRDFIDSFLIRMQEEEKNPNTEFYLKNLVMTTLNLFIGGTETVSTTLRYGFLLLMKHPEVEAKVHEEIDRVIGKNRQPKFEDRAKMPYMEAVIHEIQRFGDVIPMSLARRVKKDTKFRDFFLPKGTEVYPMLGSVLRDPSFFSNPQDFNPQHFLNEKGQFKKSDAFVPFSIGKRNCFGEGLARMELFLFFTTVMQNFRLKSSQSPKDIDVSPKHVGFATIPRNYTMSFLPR

CYP 2A6 [3] = biological target: T1, CYP 2A6; assay: CYP 2A6 mediated 7-hydroxylation of coumarin, liver microsomes; type: in vitro ADME
Method: as §10
The quality of the Chinese and Caucasian liver microsomes was checked by measuring the activity of CYP 1A2 and CYP 2A6 by the method of Yang et al. (Yang et al. 2012). CYP 1A2 and CYP 2A6 are predominant enzymes for formation of 1'-hydroxyestragole (Jeurissen et al. 2007). The activity of CYP 1A2 was measured with the substrate phenacetin, and the activity of CYP 2A6 was checked using the substrate coumarin. […] The samples were centrifuged for 5 min at 16, 000g to precipitate microsomal proteins and analyzed by UPLC.
as §11

[4] = formation of the metabolite from estragole, Chinese liver microsomes, average ± SEM
[5] = in vitro, liver microsomes, conversion of estragole
[6] = formation of the metabolite from estragole, Caucasian liver microsomes, average ± SEM
[7] = formation from 1′-hydroxyestragole (sulfation), Chinese liver S9
[8] = formation from 1′-hydroxyestragole (sulfation), Caucasian liver S9

SMILES: C=CC(O)c1ccc(OC)cc1 (centres unmarked) [1′-Hydroxyestragole]
Scaled catalytic efficiency for sulfation, lower for Chinese than Caucasian samples (Chinese liver S9; scaled to liver, sulfation of 1′-hydroxyestragole to 1′-sulfooxyestragole): 4.5 fold
Catalytic efficiency (scaled V max / K m) (Chinese liver microsomes; formation from estragole, Chinese, scaled to liver): 15.0 µL/h/g liver
Scaled V max (Chinese liver microsomes; formation from estragole, Chinese, scaled with microsomal protein yield 35 mg/(g tissue)): 0.7 µmol/h/g liver
K m (Chinese liver microsomes; [4]): 49 ± 8 µM
V max (Chinese liver microsomes; [4]): 0.35 ± 0.01 nmol /min/mg microsomal or S9 protein
Catalytic efficiency for formation of the metabolite, lower in Chinese than in Caucasian samples (Chinese liver microsomes; [5]): 2.4 fold
V max for formation of the metabolite, lower in Chinese than in Caucasian samples (Chinese liver microsomes; [5]): 3.4 fold
V max, lower in Chinese than in Caucasian liver incubations (Chinese liver microsomes; scaled kinetic constants (Table 3), conversion of estragole): 3.5 fold
Catalytic efficiency (scaled V max / K m) ([1]; formation from estragole, Caucasian, scaled to liver): 40.3 µL/h/g liver
Scaled V max ([1]; formation from estragole, Caucasian, scaled with microsomal protein yield 35 mg/(g tissue)): 2.5 µmol/h/g liver
Catalytic efficiency (V max/K m × 1000) ([1]; formation of the metabolite from estragole, Caucasian liver microsomes): 19.3 µL/min/mg microsomal or S9 protein
K m [1, 6]: 62 ± 9 µM
V max [1, 6]: 1.19 ± 0.04 nmol /min/mg microsomal or S9 protein

SMILES: C=CC(OS(=O)(=O)O)c1ccc(OC)cc1 (centres unmarked) [1′-Sulfooxyestragole]
Catalytic efficiency (V max/K m × 1000) (Chinese liver S9; [7]): 0.0021 µL/min/mg microsomal or S9 protein
K m (Chinese liver S9; [7]): 694 ± 321 µM
V max (Chinese liver S9; [7]): 0.0014 ± 0.0002 nmol /min/mg microsomal or S9 protein
Catalytic efficiency for formation of 1′-sulfooxyestragole, lower in Chinese than in Caucasian samples (Chinese liver S9; in vitro, sulfation of 1′-hydroxyestragole, liver S9): fivefold
Scaled V max (Chinese liver S9; sulfation of 1′-hydroxyestragole, Chinese, S9 protein yield 143 mg/(g tissue)): 0.01 µmol/h/g liver
Catalytic efficiency (scaled V max / K m) (Chinese liver S9; sulfation of 1′-hydroxyestragole, Chinese, scaled to liver): 0.02 µL/h/g liver
Catalytic efficiency (V max/K m × 1000) (Caucasian liver S9; [8]): 0.01 µL/min/mg microsomal or S9 protein
K m (Caucasian liver S9; [8]): 423 ± 159 µM
V max (Caucasian liver S9; [8]): 0.004 ± 0.0005 nmol /min/mg microsomal or S9 protein
Scaled V max (Caucasian liver S9; sulfation of 1′-hydroxyestragole, Caucasian, S9 protein yield 143 mg/(g tissue)): 0.03 µmol/h/g liver
Catalytic efficiency (scaled V max / K m) (Caucasian liver S9; sulfation of 1′-hydroxyestragole, Caucasian, scaled to liver): 0.08 µL/h/g liver

Km at 10 min (SULT; human, pH 7.4, Chinese liver S9): 1.7 µM
SMILES: O=c1ccc2ccc(O)cc2o1 [7-hydroxycoumarin]
Vmax for SULT mediated conversion, both ethnic groups compared (SULT; Chinese and Caucasian liver S9): similar

Catalytic efficiency of CYP 2A6 mediated conversion, lower in Chinese than Caucasian liver microsomes (CYP 2A6 [3]): 1.6 fold
SMILES: O=c1ccc2ccccc2o1 [coumarin]
Catalytic efficiency for CYP 2A6 (CYP 2A6 [2]; Chinese liver microsomes, literature range): 150-1776 µl/min/(mg microsomal protein)
CYP 2A6 catalyzed activity, Chinese versus Caucasian liver microsomes (CYP 2A6 [2]): no difference
